Measurements reported in US20080242646A1, “Split dose corticosteroid therapy” (priority 2007, published 2008).
Read-outs that look alike come from different tables or passages of the source.

What was measured:
[1] = cited from earlier work; for Equivalent dose, Equal to 1 mg prednisolone / Equivalent dose, Equal to 5 mg prednisolone: BNF guidelines
CRP = CRP measurements in the 14 week blinded randomized study; type: in vivo, human; conditions: ITT (LOCF)
Source text: The study population had active rheumatoid arthritis.
The powered study ended after these first 10 weeks. […] A schematic of the study design is shown below.

[2] = system: subjects with active rheumatoid arthritis; conditions: ITT (LOCF)
Source text: A visual analog scale (VAS) provides a measure of a one-dimensional quantity. A VAS generally utilizes a representation of distance, such as a picture of a line with hash marks drawn at regular distance intervals, e.g., ten 1-cm intervals. […] This procedure provides a simple and rapid approach to obtaining quantitative information about how the patient is experiencing pain. VAS scales can also be used, e.g., to measure fatigue.
(§1) We conducted a 14 week blinded, randomized study including a split dose corticosteroid therapy or placebo, with regular CRP and inflammatory cytokine measurements. The study population had active rheumatoid arthritis. The subject must otherwise have been in good general health.
(§2) Screening Visit • Day 1 (Baseline Visit)—Start of Run-In Period • Day 14 (±2 days)—End of Run-In Period/Start of Treatment Period • Day 42 (±2 days) • Day 70 (±2 days)—End of Treatment Period/Start of Withdrawal Period • Day 98 (±2 days)—End of Study
(§3) All eligible subjects received DMARD therapy in a stable dose. Subjects were evaluated for study eligibility at the Screening visit, which was conducted within 14 days before the first dose of study drug. The subject provided written informed consent to participate in the study before any Screening laboratory samples were collected or evaluations performed.
(§4) All subjects were given 3 mg prednisolone alone for 2 weeks (Run-In Period). Subjects were then randomized into treatment groups to additionally receive 10 mg paroxetine, 20 mg paroxetine or placebo tablets for 8 weeks (Combination Treatment Period). The powered study ended after these first 10 weeks. All subjects continued in an un-powered part of the study for an additional 4 weeks (Withdrawal Period). In this portion of the study, half of the subjects on 10 mg or 20 mg paroxetine plus 3 mg prednisolone stopped taking paroxetine, and instead took 3 mg prednisolone plus placebo, while the other half stopped taking prednisolone, and instead took either dose of paroxetine plus placebo. Similarly, half of the subjects on prednisolone plus placebo stopped the prednisolone, and instead took two placebo tablets, while the other half continued the regimen of 3 mg prednisolone plus placebo.

[3] = system: subjects with active rheumatoid arthritis; conditions: ITT, missing = non-responder, subjects (% of arm)
Source text: ACR-20/50/70 refers to a composite improvement of 20%, 50% or 70% in swollen joint count, tender joint count, and 3 or more of the following 5 measures: patient's own global assessment of RA disease activity; physician's global assessment of disease activity; patient's own assessment of pain due to RA; acute-phase reactant (CRP); and patient's self-addressed disability (Health Assessment Questionnaire).
as §1, §2, §3, §4

[4] = Day 14 (end of run-in, 3 mg prednisolone alone in all arms)

C[C@]12C=CC(=O)C=C1CC[C@H]1[C@@H]3C[C@@H](O)[C@](O)(C(=O)CO)[C@@]3(C)C[C@H](O)[C@@]12F [triamcinolone]
Equivalent dose, Equal to 1 mg prednisolone [1]: 0.8 mg | Equivalent dose, Equal to 5 mg prednisolone [1]: 4 mg | Broadly similar dose from clinical dosing equivalence ([1]; nasal administration, BNF 37 Mar. 1999): 110 µg

CC(=O)OCC(=O)[C@@]1(O)CC[C@H]2[C@@H]3CCC4=CC(=O)CC[C@]4(C)[C@H]3C(=O)C[C@@]21C [cortisone acetate]
Equivalent dose, Equal to 1 mg prednisolone [1]: 5 mg | Equivalent dose, Equal to 5 mg prednisolone [1]: 25 mg

methyl prednisone
Equivalent dose, Equal to 1 mg prednisolone [1]: 0.8 mg | Equivalent dose, Equal to 5 mg prednisolone [1]: 4 mg

CC(=O)OCC(=O)[C@@]12N=C(C)O[C@@H]1C[C@H]1[C@@H]3CCC4=CC(=O)C=C[C@]4(C)[C@H]3[C@@H](O)C[C@@]12C [deflazacort]
Equivalent dose, Equal to 1 mg prednisolone [1]: 1.2 mg | Equivalent dose, Equal to 5 mg prednisolone [1]: 6 mg

C[C@]12C=CC(=O)C=C1CC[C@@H]1[C@@H]2[C@@H](O)C[C@@]2(C)[C@H]1CC[C@]2(O)C(=O)CO [3 mg Prednisolone + Placebo, prednisolone]
CRP % Change from baseline, Max (CRP; [4]): 1700.0% | CRP % Change from baseline, Mean (Std Dev) (CRP; [4]): 7.11 (215.970) % | CRP % Change from baseline, Median (CRP; [4]): −32.26% | CRP % Change from baseline, Min (CRP; [4]): −95.8% | CRP Change from baseline, Max (CRP; [4]): 77.9 | CRP Change from baseline, Mean (Std Dev) (CRP; [4]): −7.40 (20.149) | CRP Change from baseline, Median (CRP; [4]): −1.70 | CRP Change from baseline, Min (CRP; [4]): −83.2 | CRP Value, Max (CRP; [4]): 107.3 | CRP Value, Mean (Std Dev) (CRP; [4]): 11.42 (17.413) | CRP Value, Median (CRP; [4]): 6.20 | CRP Value, Min (CRP; [4]): 0.3 | CRP % Change from baseline, Max (CRP; Day 42): 187.3% | CRP % Change from baseline, Mean (Std Dev) (CRP; Day 42): −17.67 (58.589) % | CRP % Change from baseline, Median (CRP; Day 42): −23.53% | CRP % Change from baseline, Min (CRP; Day 42): −92.5% | CRP Change from baseline, Max (CRP; Day 42): 21.5 | CRP Change from baseline, Mean (Std Dev) (CRP; Day 42): −8.61 (18.009) | CRP Change from baseline, Median (CRP; Day 42): −1.00 | CRP Change from baseline, Min (CRP; Day 42): −81.4 | CRP Value, Max (CRP; Day 42): 70.6 | CRP Value, Mean (Std Dev) (CRP; Day 42): 10.22 (12.443) | CRP Value, Median (CRP; Day 42): 5.40 | CRP Value, Min (CRP; Day 42): 0.3 | CRP % Change from baseline, Max (CRP; Day 70): 187.3% | CRP % Change from baseline, Mean (Std Dev) (CRP; Day 70): −13.66 (64.905) % | CRP % Change from baseline, Median (CRP; Day 70): −29.27% | CRP % Change from baseline, Min (CRP; Day 70): −92.8% | CRP Change from baseline, Max (CRP; Day 70): 15.5 | CRP Change from baseline, Mean (Std Dev) (CRP; Day 70): −8.95 (18.996) | CRP Change from baseline, Median (CRP; Day 70): −1.20 | CRP Change from baseline, Min (CRP; Day 70): −87.7 | CRP Value, Max (CRP; Day 70): 64.6 | CRP Value, Mean (Std Dev) (CRP; Day 70): 9.88 (11.956) | CRP Value, Median (CRP; Day 70): 5.70 | CRP Value, Min (CRP; Day 70): 0.2 | Patient Pain Assessment (VAS) score % Change from baseline, Max [2, 4]: 106.7% | Patient Pain Assessment (VAS) score % Change from baseline, Mean (Std Dev) [2, 4]: −13.65 (38.137) % | Patient Pain Assessment (VAS) score % Change from baseline, Median [2, 4]: −11.11% | Patient Pain Assessment (VAS) score % Change from baseline, Min [2, 4]: −94.7% | Patient Pain Assessment (VAS) score Change from baseline, Max [2, 4]: 35.0 | Patient Pain Assessment (VAS) score Change from baseline, Mean (Std Dev) [2, 4]: −7.73 (19.337) | Patient Pain Assessment (VAS) score Change from baseline, Median [2, 4]: −5.00 | Patient Pain Assessment (VAS) score Change from baseline, Min [2, 4]: −81.0 | Patient Pain Assessment (VAS) score Value, Max [2, 4]: 97.0 | Patient Pain Assessment (VAS) score Value, Mean (Std Dev) [2, 4]: 45.58 (25.283) | Patient Pain Assessment (VAS) score Value, Median [2, 4]: 47.00 | Patient Pain Assessment (VAS) score Value, Min [2, 4]: 2.0 | Patient Pain Assessment (VAS) score % Change from baseline, Max ([2]; Day 42): 186.7% | Patient Pain Assessment (VAS) score % Change from baseline, Mean (Std Dev) ([2]; Day 42): −19.23 (47.955) % | Patient Pain Assessment (VAS) score % Change from baseline, Median ([2]; Day 42): −23.44% | Patient Pain Assessment (VAS) score % Change from baseline, Min ([2]; Day 42): −93.5% | Patient Pain Assessment (VAS) score Change from baseline, Max ([2]; Day 42): 56.0 | Patient Pain Assessment (VAS) score Change from baseline, Mean (Std Dev) ([2]; Day 42): −10.57 (21.630) | Patient Pain Assessment (VAS) score Change from baseline, Median ([2]; Day 42): −9.00 | Patient Pain Assessment (VAS) score Change from baseline, Min ([2]; Day 42): −64.0 | Patient Pain Assessment (VAS) score Value, Max ([2]; Day 42): 97.0 | Patient Pain Assessment (VAS) score Value, Mean (Std Dev) ([2]; Day 42): 42.74 (26.143) | Patient Pain Assessment (VAS) score Value, Median ([2]; Day 42): 37.00 | Patient Pain Assessment (VAS) score Value, Min ([2]; Day 42): 2.0 | Patient Pain Assessment (VAS) score % Change from baseline, Max ([2]; Day 70): 233.3% | Patient Pain Assessment (VAS) score % Change from baseline, Mean (Std Dev) ([2]; Day 70): −17.84 (57.121) % | Patient Pain Assessment (VAS) score % Change from baseline, Median ([2]; Day 70): −25.64% | Patient Pain Assessment (VAS) score % Change from baseline, Min ([2]; Day 70): −90.5% | Patient Pain Assessment (VAS) score Change from baseline, Max ([2]; Day 70): 49.0 | Patient Pain Assessment (VAS) score Change from baseline, Mean (Std Dev) ([2]; Day 70): −12.28 (23.864) | Patient Pain Assessment (VAS) score Change from baseline, Median ([2]; Day 70): −10.00 | Patient Pain Assessment (VAS) score Change from baseline, Min ([2]; Day 70): −69.0 | Patient Pain Assessment (VAS) score Value, Max ([2]; Day 70): 97.0 | Patient Pain Assessment (VAS) score Value, Mean (Std Dev) ([2]; Day 70): 41.04 (25.466) | Patient Pain Assessment (VAS) score Value, Median ([2]; Day 70): 39.00 | Patient Pain Assessment (VAS) score Value, Min ([2]; Day 70): 2.0 | ACR20 response from baseline: No [3, 4]: 53 (77) | ACR20 response from baseline: Yes [3, 4]: 16 (23) | ACR50 response from baseline: No [3, 4]: 64 (93) | ACR50 response from baseline: Yes [3, 4]: 5 (7) | ACR70 response from baseline: No [3, 4]: 66 (96) | ACR70 response from baseline: Yes [3, 4]: 3 (4) | ACR20 response from baseline: No ([3]; Day 42): 44 (64) | ACR20 response from baseline: Yes ([3]; Day 42): 25 (36) | ACR50 response from baseline: No ([3]; Day 42): 60 (87) | ACR50 response from baseline: Yes ([3]; Day 42): 9 (13) | ACR70 response from baseline: No ([3]; Day 42): 67 (97) | ACR70 response from baseline: Yes ([3]; Day 42): 2 (3) | ACR20 response from baseline: No ([3]; Day 70): 39 (57) | ACR20 response from baseline: Yes ([3]; Day 70): 30 (43) | ACR50 response from baseline: No ([3]; Day 70): 55 (80) | ACR50 response from baseline: Yes ([3]; Day 70): 14 (20) | ACR70 response from baseline: No ([3]; Day 70): 65 (94) | ACR70 response from baseline: Yes ([3]; Day 70): 4 (6)

C[C@]12CCC(=O)C=C1CC[C@@H]1[C@@H]2[C@@H](O)C[C@@]2(C)[C@H]1CC[C@]2(O)C(=O)CO [hydrocortisone]
Equivalent dose, Equal to 1 mg prednisolone [1]: 4 mg | Equivalent dose, Equal to 5 mg prednisolone [1]: 20 mg
